PMC12459614 (European journal of medicinal chemistry, 2025)
Blank lines part the entries; values can stand above or below the compound they belong to.

Key:
hGPR17L [1] = molecular target: T1, hGPR17L (Homo sapiens, UniProt Q13304); experiment: Calcium mobilization assay; assay type: cell-based; conditions: for antagonist activity at GPR17: data not shown; for Emax: 1321-N1, read-out: % Efficacy Avg ± SEM; for IC50 / Calcium assay IC50(μM) Avg ± SEM: reported only when efficacy ≥75%
hGPR17L [2] = molecular target: T1, hGPR17L; experiment: cAMP accumulation HTRF assay; conditions: cAMP accumulation assay
GPR17 = conditions: cited from earlier work
hGPR17L [3] = molecular target: T1, hGPR17L; experiment: cAMP signaling in GLUTag cells expressing hGPR17L; assay type: cell-based; conditions: for attenuation of MDL-mediated inhibition of forskolin-stimulated cAMP: 10 μM compound, 100 nM MDL, 10 μM forskolin
hGPR17L [4] = molecular target: T1, hGPR17L; experiment: GLP-1 secretion assay in GLUTag cells expressing hGPR17L; assay type: cell-based; conditions: 10 μM compound; 6.3 μM MDL; 10 μM forskolin and 10 μM IBMX
[5] = Calcium Assay IC50(μM) Avg ± SEM, Table 2
[6] = Calcium assay IC50(μM) Avg ± SEM, Table 3

T1 sequence (Q13304 whole entry): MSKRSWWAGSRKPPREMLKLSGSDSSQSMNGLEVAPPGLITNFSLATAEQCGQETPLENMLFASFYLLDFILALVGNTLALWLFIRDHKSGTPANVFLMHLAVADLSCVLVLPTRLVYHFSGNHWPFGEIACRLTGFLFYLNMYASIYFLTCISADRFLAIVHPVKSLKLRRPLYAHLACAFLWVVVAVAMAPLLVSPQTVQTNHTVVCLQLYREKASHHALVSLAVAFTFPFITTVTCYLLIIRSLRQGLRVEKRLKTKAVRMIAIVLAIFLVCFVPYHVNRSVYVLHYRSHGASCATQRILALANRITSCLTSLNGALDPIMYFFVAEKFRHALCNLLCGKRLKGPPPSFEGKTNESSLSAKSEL

SMILES: CC(C)[C@@H](O)CC[C@@H](C)[C@H]1CC[C@H]2[C@@H]3CC=C4C[C@@H](O)CC[C@]4(C)[C@H]3CC[C@]12C [24S-HC, 24(S)-hydroxycholesterol, reference compound]
activation of GPR17 or potentiation of MDL (hGPR17L [1]; calcium mobilization assay): not able to confirm
activation of GPR17 or potentiation of MDL (hGPR17L [2]): not able to confirm

antagonist activity at GPR17 (hGPR17L [1]; calcium mobilization assay): full antagonist activity
SMILES: O=C(O)c1ccc(OCCCc2ccc(OCCCCOc3ccccc3)cc2)c(C(=O)NC2CCCC(C(=O)O)C2)c1 (stereo not shown) [BayCysLT2, reference compound]
block of MDL-stimulated receptor activation of GPR17 (GPR17): completely

Emax (hGPR17L [1]): 47.4 ± 3.11%
SMILES: COc1cc(C(=O)NC2CCCc3c2[nH]c2c(Cl)cccc32)cc(OC)c1OC (stereo not shown) [Compd 2, N-(8-Chloro-2,3,4,9-tetrahydro-1H-carbazol-1-yl)-3,4,5-trimethoxybenzamide]

Emax (hGPR17L [1]): 77.4 ± 3.46%
IC50 (hGPR17L [1]; [5]): 11.4 ± 0.59 µM
SMILES: O=C(NC1CCCc2c1[nH]c1c(Cl)cccc21)c1ccc2c(c1)OCO2 (stereo not shown) [Compd 3, N-(8-Chloro-2,3,4,9-tetrahydro-1H-carbazol-1-yl)benzo[d][1,3]dioxole-5-carboxamide]

Emax (hGPR17L [1]): 81.5 ± 1.23%
IC50 (hGPR17L [1]; [5]): 10.7 ± 0.29 µM
SMILES: COc1ccc(C(=O)NC2CCCc3c2[nH]c2c(Cl)cccc32)cc1C (stereo not shown) [Compd 4, N-(8-Chloro-2,3,4,9-tetrahydro-1H-carbazol-1-yl)-4-methoxy-3-methylbenzamide]

Emax (hGPR17L [1]): 50.6 ± 3.54%
SMILES: COc1ccc(C(=O)NC2CCCc3c2[nH]c2c(Cl)cccc32)cc1S(C)(=O)=O (stereo not shown) [Compd 5, N-(8-Chloro-2,3,4,9-tetrahydro-1H-carbazol-1-yl)-4-methoxy-3-(methylsulfonyl)benzamide]

Emax (hGPR17L [1]): 38 ± 2.73%
SMILES: CS(=O)(=O)c1ccc(C(=O)NC2CCCc3c2[nH]c2c(Cl)cccc32)cc1F (stereo not shown) [Compd 6, N-(8-Chloro-2,3,4,9-tetrahydro-1H-carbazol-1-yl)-3-fluoro-4-(methylsulfonyl)benzamide]

Emax (hGPR17L [1]): 117 ± 6.08%
IC50 (hGPR17L [1]; [5]): 4.42 ± 0.34 µM
SMILES: CS(=O)(=O)c1ccc(C(=O)NC2CCCc3c2[nH]c2c(Cl)cccc32)cc1[N+](=O)[O-] (stereo not shown) [Compd 7, N-(8-Chloro-2,3,4,9-tetrahydro-1H-carbazol-1-yl)-4-(methylsulfonyl)-3-nitrobenzamide]

SMILES: O=C(NC1CCCc2c1[nH]c1c(Cl)cccc21)c1ccc([N+](=O)[O-])c([N+](=O)[O-])c1 (stereo not shown) [Compd 8, N-(8-Chloro-2,3,4,9-tetrahydro-1H-carbazol-1-yl)-3,4-dinitrobenzamide]
Emax (hGPR17L [1]): 74.1 ± 2.16%
attenuation of MDL-mediated inhibition of forskolin-stimulated cAMP (hGPR17L [3]): significantly attenuated

Emax (hGPR17L [1]): 90.3 ± 7.04%
IC50 (hGPR17L [1]; [5]): 12.6 ± 0.89 µM
SMILES: COc1cc(C(=O)NC2CCCc3c2[nH]c2c(Cl)cccc32)ccc1F (stereo not shown) [Compd 9, N-(8-Chloro-2,3,4,9-tetrahydro-1H-carbazol-1-yl)-4-fluoro-3-methoxybenzamide]

Emax (hGPR17L [1]): 52.8 ± 2.26%
SMILES: Cc1cc(C(=O)NC2CCCc3c2[nH]c2c(Cl)cccc32)ccc1Br (stereo not shown) [Compd 10, 4-Bromo-N-(8-chloro-2,3,4,9-tetrahydro-1H-carbazol-1-yl)-3-methylbenzamide]

Emax (hGPR17L [1]): 29.8 ± 1.21%
SMILES: Cc1cc([N+](=O)[O-])ccc1C(=O)NC1CCCc2c1[nH]c1c(Cl)cccc21 (stereo not shown) [Compd 11, N-(8-Chloro-2,3,4,9-tetrahydro-1H-carbazol-1-yl)-2-methyl-4-nitrobenzamide]

Emax (hGPR17L [1]): 44.3 ± 3.47%
SMILES: O=C(NC1CCCc2c1[nH]c1c(Cl)cccc21)c1c(F)cc([N+](=O)[O-])cc1F (stereo not shown) [Compd 12, N-(8-chloro-2,3,4,9-tetrahydro-1H-carbazol-1-yl)-2,6-difluoro-4-nitrobenzamide]

Emax (hGPR17L [1]): 101 ± 9.98%
IC50 (hGPR17L [1]; [5]): 11.6 ± 1.19 µM
SMILES: O=C(NC1CCCc2c1[nH]c1c(Cl)cccc21)c1ccc(F)c([N+](=O)[O-])c1 (stereo not shown) [Compd 13, N-(8-chloro-2,3,4,9-tetrahydro-1H-carbazol-1-yl)-4-fluoro-3-nitrobenzamide]

Emax (hGPR17L [1]): 104 ± 9.32%
IC50 (hGPR17L [1]; [5]): 7.94 ± 0.49 µM
SMILES: O=C(NC1CCCc2c1[nH]c1c(Cl)cccc21)C(NS(=O)(=O)c1cccs1)c1ccccc1 (stereo not shown) [Compd 14, N-(8-Chloro-2,3,4,9-tetrahydro-1H-carbazol-1-yl)-2-phenyl-2-(thiophene-2-sulfonamido)acetamide]

Emax (hGPR17L [1]): 49.4 ± 2.45%
attenuation of MDL-mediated inhibition of forskolin-stimulated cAMP (hGPR17L [3]): significantly attenuated
attenuation of MDL-mediated inhibition of GLP-1 secretion (hGPR17L [4]): significantly attenuated
SMILES: O=C(O)c1ccc(C(=O)NC2CCCc3c2[nH]c2c(Cl)cccc32)cc1 (stereo not shown) [Compd 15, 4-((8-Chloro-2,3,4,9-tetrahydro-1H-carbazol-1-yl)carbamoyl)benzoic acid]

Emax (hGPR17L [1]): 40.4 ± 4.47%
SMILES: O=C(NC1CCCc2c1[nH]c1c(Cl)cccc21)c1ccc(Br)cc1 (stereo not shown) [Compd 16, 4-Bromo-N-(8-chloro-2,3,4,9-tetrahydro-1H-carbazol-1-yl)benzamide]

Emax (hGPR17L [1]): 62.6 ± 4.84%
SMILES: Cc1ccc(C(=O)NC2CCCc3c2[nH]c2c(Cl)cccc32)cc1 (stereo not shown) [Compd 17, N-(8-chloro-2,3,4,9-tetrahydro-1H-carbazol-1-yl)-4-methylbenzamide]

Emax (hGPR17L [1]): 72.1 ± 4.2%
IC50 (hGPR17L [1]; [6]): 9.44 ± 1.25 µM
SMILES: COc1ccc(C(=O)NC2CCCc3c2[nH]c2ccccc32)cc1OC (stereo not shown) [Compd 18, 3,4-Dimethoxy-N-(2,3,4,9-tetrahydro-1H-carbazol-1-yl)benzamide]

Emax (hGPR17L [1]): 125 ± 4.3%
IC50 (hGPR17L [1]; [6]): 4.29 ± 0.48 µM
SMILES: COc1ccc(C(=O)NC2CCCc3c2[nH]c2c(Br)cccc32)cc1OC (stereo not shown) [Compd 19, N-(8-Bromo-2,3,4,9-tetrahydro-1H-carbazol-1-yl)-3,4-dimethoxybenzamide]

Emax (hGPR17L [1]): 55.5 ± 1.74%
SMILES: COc1cc(OC)cc(C(=O)NC2CCCc3c2[nH]c2c(Br)cccc32)c1 (stereo not shown) [Compd 20, N-(8-bromo-2,3,4,9-tetrahydro-1H-carbazol-1-yl)-3,5-dimethoxybenzamide]

Emax (hGPR17L [1]): 87.5 ± 0.92%
IC50 (hGPR17L [1]; [6]): 12.2 ± 0.5 µM
attenuation of MDL-mediated inhibition of forskolin-stimulated cAMP (hGPR17L [3]): significantly attenuated
SMILES: COc1ccc(C(=O)NC2CCCc3c2[nH]c2c(C)cc(C)cc32)cc1OC (stereo not shown) [Compd 21, N-(6,8-Dimethyl-2,3,4,9-tetrahydro-1H-carbazol-1-yl)-3,4-dimethoxybenzamide]

Emax (hGPR17L [1]): 68.2 ± 1.59%
SMILES: COc1cc(OC)cc(C(=O)NC2CCCc3c2[nH]c2c(C)cc(C)cc32)c1 (stereo not shown) [Compd 22, N-(6,8-Dimethyl-2,3,4,9-tetrahydro-1H-carbazol-1-yl)-3,5-dimethoxybenzamide]

Emax (hGPR17L [1]): 83.7 ± 2.39%
IC50 (hGPR17L [1]; [6]): 11.8 ± 0.5 µM
SMILES: COc1ccc(C(=O)NC2CCCc3c2[nH]c2c(C)ccc(C)c32)cc1OC (stereo not shown) [Compd 23, N-(5,8-dimethyl-2,3,4,9-tetrahydro-1H-carbazol-1-yl)-3,4-dimethoxybenzamide]

Calcium assay IC50(μM) Avg ± SEM (hGPR17L [1]; Table 3): inactive
SMILES: COc1ccc(C(=O)NC2CCCc3c2[nH]c2c(C(=O)O)cccc32)cc1OC (stereo not shown) [Compd 24, 1-(3,4-Dimethoxybenzamido)-2,3,4,9-tetrahydro-1H-carbazole-8-carboxylic acid]

Calcium assay IC50(μM) Avg ± SEM (hGPR17L [1]; Table 3): inactive
SMILES: COc1ccc(C(=O)NC2CCCc3c2[nH]c2cc(C(=O)O)ccc32)cc1OC (stereo not shown) [Compd 25, 1-(3,4-Dimethoxybenzamido)-2,3,4,9-tetrahydro-1H-carbazole-7-carboxylic acid]

Calcium assay IC50(μM) Avg ± SEM (hGPR17L [1]; Table 3): inactive
SMILES: COc1ccc(C(=O)NC2CCCc3c2[nH]c2ccc(C(=O)O)cc32)cc1OC (stereo not shown) [Compd 26, 1-(3,4-Dimethoxybenzamido)-2,3,4,9-tetrahydro-1H-carbazole-6-carboxylic acid]

cAMP levels after forskolin stimulation (hGPR17L [3]; forskolin alone, basal 0.59 ± 0.04 nM): 4.7 ± 0.36 nM
SMILES: C=C[C@@]1(C)CC(=O)[C@]2(O)[C@@]3(C)[C@@H](O)CCC(C)(C)[C@@H]3[C@H](O)[C@H](OC(C)=O)[C@@]2(C)O1 [Forskolin, forskolin, reference compound]

antagonist activity at GPR17 (hGPR17L [1]; calcium mobilization assay): no antagonist activity
SMILES: CN(C)C(=O)CCSC(SCCC(=O)O)c1cccc(/C=C/c2ccc3ccc(Cl)cc3n2)c1 (stereo not shown) [MK571, reference compound]

SMILES: COc1cccc(-c2ccccc2-c2ccc(C(=O)Nc3ccc(OC)cc3C(=O)O)o2)c1 [PSB-22269]
potency in a binding assay and functional assays (GPR17): nanomolar range potency

SMILES: CSCCNc1nc(SCCC(F)(F)F)nc2c1ncn2[C@@H]1O[C@H](COP(=O)(O)OP(=O)(O)C(Cl)(Cl)P(=O)(O)O)[C@@H](O)[C@H]1O [cangrelor]
block of MDL-stimulated receptor activation (GPR17): failed to block

antagonist activity at GPR17 (hGPR17L [1]; calcium mobilization assay): do not observe antagonist activity
SMILES: COC(=O)[C@H](c1ccccc1Cl)N1CCc2sccc2C1 [clopidogrel, reference compound]

antagonist activity at GPR17 (hGPR17L [1]; calcium mobilization assay): partial antagonist activity
SMILES: CC(C)(O)c1ccccc1CC[C@@H](SCC1(CC(=O)O)CC1)c1cccc(/C=C/c2ccc3ccc(Cl)cc3n2)c1 [montelukast, reference compound]
block of MDL-stimulated receptor activation of GPR17 (GPR17): partially

antagonist activity at GPR17 (hGPR17L [1]; calcium mobilization assay): do not observe antagonist activity
SMILES: CC(=O)Oc1cc2c(s1)CCN(C(C(=O)C1CC1)c1ccccc1F)C2 (stereo not shown) [prasugrel, reference compound]

SMILES: CCCSc1nc(N[C@@H]2C[C@H]2c2ccc(F)c(F)c2)c2nnn([C@@H]3C[C@H](OCCO)[C@@H](O)[C@H]3O)c2n1 [ticagrelor]
block of MDL-stimulated receptor activation (GPR17): failed to block

antagonist activity at GPR17 (hGPR17L [1]; calcium mobilization assay): do not observe antagonist activity
SMILES: Clc1ccccc1CN1CCc2sccc2C1 [ticlopidine, reference compound]

antagonist activity at GPR17 (hGPR17L [1]; calcium mobilization assay): partial antagonist activity
SMILES: CCCc1c(OCCCCc2nnn[nH]2)ccc(C(C)=O)c1O [tomelukast, reference compound]

antagonist activity at GPR17 (hGPR17L [1]; calcium mobilization assay): full antagonist activity
SMILES: COc1cc(C(=O)NS(=O)(=O)c2ccccc2C)ccc1Cc1cn(C)c2ccc(NC(=O)OC3CCCC3)cc12 [zafirlukast, reference compound]
